Patent US20210371451A1, “CYCLIC-DI-AMP SODIUM SALT CRYSTAL” (Yamasa Corporation, priority 2018, published 2021)
Like-named read-outs stand apart in the source and are kept apart here.

What was measured:
[1] = format: physicochemical; conditions: for purity of crystal by HPLC: 105° C.
Procedure: The purity of the c-di-AMP sodium salt in the crystal α obtained in Example 1 was analyzed by high performance liquid chromatography. As a result, the purity of c-di-AMP was 100%. Note that the high performance liquid chromatography was performed under the following conditions.
Column: Hydrosphere C18 (manufactured by YMC, Inc.)
Eluent: 0.1 M TEA-P (pH 6.0)+4.5% ACN
Detection method: detection at UV260 nm
The crystals obtained in the above Example 1, Example 2, Example 4, and Reference Example were allowed to stand under conditions at 105° C. Some crystals were sampled over time, and an aqueous solution was prepared therefrom. Then, the purity of each crystal was analyzed by high performance liquid chromatography. FIG. 18 and Table 6 show the results obtained.

[2] = pH 5
Procedure: The purified c-di-AMP was used to prepare a c-di-AMP aqueous solution with an OD257 of 2500 and at a pH of 5.0, 5.2, 5.4, 5.6, 5.8, 6.0, or 6.5. Each resulting c-di-AMP solution (0.2 mL) with an OD257 of 2500 was heated to 30° C. Next, 1 mL of 99.5% (w/w) ethanol was gently added. The mixture was then tightly sealed and allowed to stand overnight or for several days at 30° C. to precipitate crystals. The resulting crystals so precipitated were filtered through a membrane filter to yield wet crystals.
Dilution allowed for preparation of a c-di-AMP aqueous solution at a low concentration.

stability under severe conditions [1] | purity of crystal by HPLC ([1]; Day 1) [%] | purity of crystal by HPLC ([1]; Day 2) [%] | purity of crystal by HPLC ([1]; Day 3) [%] | purity of crystal by HPLC ([1]; Day 4) [%] | purity of crystal by HPLC ([1]; Day 5) [%] | solubility [2] | Compound | purity of crystal by HPLC ([1]; Day 0) [%] | purity of crystal by HPLC ([1]; Day 1, sodium salt) [%] | purity of crystal by HPLC ([1]; Day 2, sodium salt) [%] | purity of crystal by HPLC ([1]; Day 3, sodium salt) [%] | purity of crystal by HPLC ([1]; Day 4, sodium salt) [%] | purity of crystal by HPLC ([1]; Day 5, sodium salt) [%]
decreased stability | 91.81 | 88.82 | 86.46 | 86.31 | 85.42 | – | Nc1ncnc2c1ncn2[C@@H]1O[C@@H]2COP(=O)(O)O[C@H]3[C@@H](O)[C@H](n4cnc5c(N)ncnc54)O[C@@H]3COP(=O)(O)O[C@H]2[C@H]1O [Reference Example, c-di-AMP free acid, reference compound] | 100.00 | – | – | – | – | –
– | – | – | – | – | – | low | Nc1ncnc2c1ncn2[C@@H]1O[C@@H]2COP(=O)(O)O[C@H]3[C@@H](O)[C@H](n4cnc5c(N)ncnc54)O[C@@H]3COP(=O)(O)O[C@H]2[C@H]1O [c-di-AMP, Cyclic-di-AMP] | – | – | – | – | – | –
– | – | – | – | – | – | – | c-di-AMP sodium salt [Example 1] | 100.00 | 98.75 | 97.98 | 97.98 | 97.87 | 97.15
– | – | – | – | – | – | – | c-di-AMP sodium salt [Example 2] | 100.00 | 99.02 | 98.73 | 98.63 | 99.02 | 98.09
– | – | – | – | – | – | – | c-di-AMP sodium salt [Example 4] | 100.00 | 99.65 | 99.35 | 99.14 | 99.09 | 98.93
